pIC50: −log10 of the molar value. Marks after values point to notes of the source that are not given here.
Experiments:
[1] = system: BRD pathogens, M. haemolytica and P. multocida; test: In-vitro MIC model, BRD pathogen screening panel; assay type: cell-based, Mannheimia haemolytica; Pasteurella multocida; details: at least one BRD strain
IL-6 = test: Whole blood assay, LPS stimulation, MSD cytokine detection; assay type: cell-based; details: fresh whole bovine blood
IL-1β = test: as above; assay type: cell-based, bovine; details: fresh whole bovine blood, LPS stimulation; drug concentration giving overstimulation (OS) of IL-1β
TNF-α = test: as above; assay type: cell-based; details: fresh whole bovine blood

CC[C@H]1OC(=O)[C@H](C)[C@@H](O[C@H]2C[C@@](C)(OC)[C@@H](O)[C@H](C)O2)[C@H](C)[C@@H](O[C@@H]2O[C@H](C)C[C@H](N(C)C)[C@H]2Oc2ccccc2C#N)[C@](C)(O)C[C@@H](C)CN(C)[C@H](C)[C@@H](O)[C@]1(C)O [Example A-3]
MIC flag at the example number (Table A) [1]: A-3* (MIC ≤ 64 μg/mL for at least one BRD strain)

CC[C@H]1OC(=O)[C@H](C)[C@@H](O[C@H]2C[C@@](C)(OC)[C@@H](O)[C@H](C)O2)[C@H](C)[C@@H](O[C@@H]2O[C@H](C)C[C@H](N(C)C)[C@H]2Oc2ccc(Cl)nc2)[C@](C)(O)C[C@@H](C)CN(C)[C@H](C)[C@@H](O)[C@]1(C)O [Example A-5]
MIC flag at the example number (Table A) [1]: A-5* (MIC ≤ 64 μg/mL for at least one BRD strain)

CC[C@H]1OC(=O)[C@H](C)[C@@H](O[C@H]2C[C@@](C)(OC)[C@@H](O)[C@H](C)O2)[C@H](C)[C@@H](O[C@@H]2O[C@H](C)C[C@H](N(C)C)[C@H]2Oc2cnc(OC)nc2)[C@](C)(O)C[C@@H](C)CN(C)[C@H](C)[C@@H](O)[C@]1(C)O [Example A-7]
MIC flag at the example number (Table A) [1]: A-7* (MIC ≤ 64 μg/mL for at least one BRD strain)

CC[C@H]1OC(=O)[C@H](C)[C@@H](O[C@H]2C[C@@](C)(OC)[C@@H](O)[C@H](C)O2)[C@H](C)[C@@H](O[C@@H]2O[C@H](C)C[C@H](NC)[C@H]2Oc2ccc3ncccc3c2)[C@](C)(O)C[C@@H](C)CN(C)[C@H](C)[C@@H](O)[C@]1(C)O [Example A-8]
MIC flag at the example number (Table A) [1]: A-8* (MIC ≤ 64 μg/mL for at least one BRD strain)

CC[C@H]1OC(=O)[C@H](C)[C@@H](O[C@H]2C[C@@](C)(OC)[C@@H](O)[C@H](C)O2)[C@H](C)[C@@H](O[C@@H]2O[C@H](C)C[C@H](N(C)C)[C@H]2Oc2ccccc2Cl)[C@](C)(O)C[C@@H](C)CN(C)[C@H](C)[C@@H](O)[C@]1(C)O [Example A-10]
MIC flag at the example number (Table A) [1]: A-10* (MIC ≤ 64 μg/mL for at least one BRD strain)

CC[C@H]1OC(=O)[C@H](C)[C@@H](O[C@H]2C[C@@](C)(OC)[C@@H](O)[C@H](C)O2)[C@H](C)[C@@H](O[C@@H]2O[C@H](C)C[C@H](NC)[C@H]2Oc2cncc(C(F)(F)F)c2)[C@](C)(O)C[C@@H](C)CN(C)[C@H](C)[C@@H](O)[C@]1(C)O [Example A-13, (2R,3S,4R,5R,8R,10R,11R,12S,13S,14R)-2-ethyl-3,4,10-trihydroxy-13-(((2R,4R,5S,6S)-5-hydroxy-4-methoxy-4,6-dimethyltetrahydro-2H-pyran-2-yl)oxy)-3,5,6,8,10,12,14-heptamethyl-11-(((2S,3R,4S,6R)-6-methyl-4-(methylamino)-3-((5-(trifluoromethyl)pyridin-3-yl)oxy)tetrahydro-2H-pyran-2-yl)oxy)-1-oxa-6-azacyclopentadecan-15-one]
MIC flag at the example number (Table A) [1]: A-13* (MIC ≤ 64 μg/mL for at least one BRD strain)

CC[C@H]1OC(=O)[C@H](C)[C@@H](O[C@H]2C[C@@](C)(OC)[C@@H](O)[C@H](C)O2)[C@H](C)[C@@H](O[C@@H]2O[C@H](C)C[C@H](NC)[C@H]2Oc2cc(F)ccc2OC)[C@](C)(O)C[C@@H](C)CN(C)[C@H](C)[C@@H](O)[C@]1(C)O [Example A-14]
MIC flag at the example number (Table A) [1]: A-14* (MIC ≤ 64 μg/mL for at least one BRD strain)

CC[C@H]1OC(=O)[C@H](C)[C@@H](O[C@H]2C[C@@](C)(OC)[C@@H](O)[C@H](C)O2)[C@H](C)[C@@H](O[C@@H]2O[C@H](C)C[C@H](NC)[C@H]2Oc2cnc(OC)nc2)[C@](C)(O)C[C@@H](C)CN(C)[C@H](C)[C@@H](O)[C@]1(C)O [Example A-15]
MIC flag at the example number (Table A) [1]: A-15* (MIC ≤ 64 μg/mL for at least one BRD strain)

CCOc1ccc(O[C@H]2[C@H](O[C@@H]3[C@@H](C)[C@H](O[C@H]4C[C@@](C)(OC)[C@@H](O)[C@H](C)O4)[C@@H](C)C(=O)O[C@H](CC)[C@@](C)(O)[C@H](O)[C@@H](C)N(C)C[C@H](C)C[C@@]3(C)O)O[C@H](C)C[C@@H]2NC)cc1 [Example A-17]
MIC flag at the example number (Table A) [1]: A-17* (MIC ≤ 64 μg/mL for at least one BRD strain)

CC[C@H]1OC(=O)[C@H](C)[C@@H](O[C@H]2C[C@@](C)(OC)[C@@H](O)[C@H](C)O2)[C@H](C)[C@@H](O[C@@H]2O[C@H](C)C[C@H](N(C)C)[C@H]2Oc2cccc(OC)c2)[C@](C)(O)C[C@@H](C)CN(C)[C@H](C)[C@@H](O)[C@]1(C)O [Example A-20]
MIC flag at the example number (Table A) [1]: A-20* (MIC ≤ 64 μg/mL for at least one BRD strain)

CC[C@H]1OC(=O)[C@H](C)[C@@H](O[C@H]2C[C@@](C)(OC)[C@@H](O)[C@H](C)O2)[C@H](C)[C@@H](O[C@@H]2O[C@H](C)C[C@H](NC)[C@H]2Oc2ccc(F)c(S(C)(=O)=O)c2)[C@](C)(O)C[C@@H](C)CN(C)[C@H](C)[C@@H](O)[C@]1(C)O [Example A-22]
MIC flag at the example number (Table A) [1]: A-22* (MIC ≤ 64 μg/mL for at least one BRD strain)

CC[C@H]1OC(=O)[C@H](C)[C@@H](O[C@H]2C[C@@](C)(OC)[C@@H](O)[C@H](C)O2)[C@H](C)[C@@H](O[C@@H]2O[C@H](C)C[C@H](N(C)C)[C@H]2Oc2ccc(OC)nc2C)[C@](C)(O)C[C@@H](C)CN(C)[C@H](C)[C@@H](O)[C@]1(C)O [Example A-38]
MIC flag at the example number (Table A) [1]: A-38* (MIC ≤ 64 μg/mL for at least one BRD strain)

CC[C@H]1OC(=O)[C@H](C)[C@@H](O[C@H]2C[C@@](C)(OC)[C@@H](O)[C@H](C)O2)[C@H](C)[C@@H](O[C@@H]2O[C@H](C)C[C@H](NC)[C@H]2Oc2ccc(OC)nc2OC)[C@](C)(O)C[C@@H](C)CN(C)[C@H](C)[C@@H](O)[C@]1(C)O [Example A-42]
MIC flag at the example number (Table A) [1]: A-42* (MIC ≤ 64 μg/mL for at least one BRD strain)

CC[C@H]1OC(=O)[C@H](C)[C@@H](O[C@H]2C[C@@](C)(OC)[C@@H](O)[C@H](C)O2)[C@H](C)[C@@H](O[C@@H]2O[C@H](C)C[C@H](N(C)C)[C@H]2Oc2ccc(OC)nc2OC)[C@](C)(O)C[C@@H](C)CN(C)[C@H](C)[C@@H](O)[C@]1(C)O [Example A-43]
MIC flag at the example number (Table A) [1]: A-43* (MIC ≤ 64 μg/mL for at least one BRD strain)

CC[C@H]1OC(=O)[C@H](C)[C@@H](O[C@H]2C[C@@](C)(OC)[C@@H](O)[C@H](C)O2)[C@H](C)[C@@H](O[C@@H]2O[C@H](C)C[C@H](N(C)C)[C@H]2Oc2ccccc2OC)[C@](C)(O)C[C@@H](C)CN(C)[C@H](C)[C@@H](O)[C@]1(C)O [Example A-46]
MIC flag at the example number (Table A) [1]: A-46* (MIC ≤ 64 μg/mL for at least one BRD strain)

CC[C@H]1OC(=O)[C@H](C)[C@@H](O[C@H]2C[C@@](C)(OC)[C@@H](O)[C@H](C)O2)[C@H](C)[C@@H](O[C@@H]2O[C@H](C)C[C@H](N(C)C)[C@H]2Oc2cc(OC)cc(OC)c2)[C@](C)(O)C[C@@H](C)CN(C)[C@H](C)[C@@H](O)[C@]1(C)O [Example A-48]
MIC flag at the example number (Table A) [1]: A-48* (MIC ≤ 64 μg/mL for at least one BRD strain)

CC[C@H]1OC(=O)[C@H](C)[C@@H](O)[C@H](C)[C@@H](O[C@@H]2O[C@H](C)C[C@H](N(C)C(=O)N(C)c3ccccc3)[C@H]2Oc2ccc3ncsc3c2)[C@](C)(O)C[C@@H](C)CN(C)[C@H](C)[C@@H](O)[C@]1(C)O [Example C-11]
MIC flag at the example number (Table C) [1]: C-11* (MIC ≤ 64 μg/mL for at least one BRD strain)

CCCNC[C@]1(O)[C@H](C)O[C@@H](O[C@H]2[C@H](C)[C@@H](O[C@@H]3O[C@H](C)C[C@H](NC)[C@H]3Oc3ccccc3OC(F)(F)F)[C@](C)(O)C[C@@H](C)CN[C@H](C)[C@@H](O)[C@](C)(O)[C@@H](CC)OC(=O)[C@@H]2C)C[C@@]1(C)OC [Example E-5]
MIC flag at the example number (Table E) [1]: E-5* (MIC ≤ 64 μg/mL for at least one BRD strain)

CCCNC[C@]1(O)[C@H](C)O[C@@H](O[C@H]2[C@H](C)[C@@H](O[C@@H]3O[C@H](C)C[C@H](NC)[C@H]3Oc3ccccc3Cl)[C@](C)(O)C[C@@H](C)CN[C@H](C)[C@@H](O)[C@](C)(O)[C@@H](CC)OC(=O)[C@@H]2C)C[C@@]1(C)OC [Example E-14]
MIC flag at the example number (Table E) [1]: E-14* (MIC ≤ 64 μg/mL for at least one BRD strain)

CCCNC[C@]1(O)[C@H](C)O[C@@H](O[C@H]2[C@H](C)[C@@H](O[C@@H]3O[C@H](C)C[C@H](NCC(C)C)[C@H]3Oc3ccccc3)[C@](C)(O)C[C@@H](C)CN[C@H](C)[C@@H](O)[C@](C)(O)[C@@H](CC)OC(=O)[C@@H]2C)C[C@@]1(C)OC [Example E-155]
pIC50 (IL-6; Bos taurus): 5.10 | IL-1ß OS of LPS (IL-1β): 6 µM | pIC50 (TNF-α; Bos taurus): 5.10

CCCNC[C@]1(O)[C@H](C)O[C@@H](O[C@H]2[C@H](C)[C@@H](O[C@@H]3O[C@H](C)C[C@H](N(CC)CC)[C@H]3Oc3ccccc3)[C@](C)(O)C[C@@H](C)CN[C@H](C)[C@@H](O)[C@](C)(O)[C@@H](CC)OC(=O)[C@@H]2C)C[C@@]1(C)OC [Example E-156]
pIC50 (IL-6): 5.00 | IL-1ß OS of LPS (IL-1β): 16 µM | pIC50 (TNF-α): 5.10

CCCNC[C@]1(O)[C@H](C)O[C@@H](O[C@H]2[C@H](C)[C@@H](O[C@@H]3O[C@H](C)C[C@H](NC)[C@H]3Oc3ccccc3)[C@](C)(O)C[C@@H](C)CN(CCC)[C@H](C)[C@@H](O)[C@](C)(O)[C@@H](CC)OC(=O)[C@@H]2C)C[C@@]1(C)OC [Example E-157]
pIC50 (IL-6; Bos taurus): 5.00 | IL-1ß OS of LPS (IL-1β): 16 µM | pIC50 (TNF-α; Bos taurus): 5.05

CCCNC[C@]1(O)[C@H](C)O[C@@H](O[C@H]2[C@H](C)[C@@H](O[C@@H]3O[C@H](C)C[C@H](N(C)C(=O)N(C)c4ncccn4)[C@H]3Oc3ccccc3)[C@](C)(O)C[C@@H](C)CN[C@H](C)[C@@H](O)[C@](C)(O)[C@@H](CC)OC(=O)[C@@H]2C)C[C@@]1(C)OC [Example F-8]
pIC50 (IL-6): 3.78 | IL-1ß OS of LPS (IL-1β): 40 µM | pIC50 (TNF-α): 3.77

CCCNC[C@]1(O)[C@H](C)O[C@@H](O[C@H]2[C@H](C)[C@@H](O[C@@H]3O[C@H](C)C[C@H](N(C)C(=O)N(C)C(C)C)[C@H]3Oc3ccccc3)[C@](C)(O)C[C@@H](C)CN[C@H](C)[C@@H](O)[C@](C)(O)[C@@H](CC)OC(=O)[C@@H]2C)C[C@@]1(C)OC [Example F-27]
pIC50 (IL-6): 5.40 | IL-1ß OS of LPS (IL-1β): 1 µM | pIC50 (TNF-α): 4.96

From patent US12390441B2, “Immunomodulating o-het/aryl azalides” (Zoetis Services LLC, priority 2020, dated 2025)
